Q: Which melting point does the source give for `Nc1cc(N)cc(C(=O)O)c1` here?
A: Its melting point is 228 °C.

Q: With `O=C(O)CCS` as the compound, how does the log10 vapour pressure (mmHg) read?
A: Its log10 vapour pressure (mmHg) is -1.3.

Q: What about the melting point of the same compound?
A: Its melting point is 18 °C.

Q: Which log10 Koc (L/kg) does the source give for `C1OC1C1CO1` (stereo not drawn) here?
A: The log10 Koc (L/kg) was 0.4.

Q: What about the log10 vapour pressure (mmHg) of the same compound?
A: Its log10 vapour pressure (mmHg) is 1.59.

Q: Which melting point does the source give for `NC(=O)CF` here?
A: The melting point was 108 °C.

Q: With `CCCCC(C)(O)CCC` (stereo not drawn) as the compound, how does the boiling point read?
A: Its boiling point is 180 °C.

Q: Which boiling point does the source give for `N#Cc1cccs1` here?
A: The boiling point was 192 °C.

Q: With `Clc1cc(-c2c(Cl)cc(Cl)c(Cl)c2Cl)c(Cl)c(Cl)c1Cl` as the compound, how does the log10 Henry constant (atm·m³/mol) read?
A: Its log10 Henry constant (atm·m³/mol) is -5.

Q: With `CC(=O)Oc1cc(C)ccc1C` as the compound, how does the boiling point read?
A: The boiling point was 237 °C.

Q: With `Cc1ccc2ncccc2c1` as the compound, how does the boiling point read?
A: Its boiling point is 259 °C.

Q: What about the log10 vapour pressure (mmHg) of the same compound?
A: The log10 vapour pressure (mmHg) was -2.19.

Q: What about the melting point of the same compound?
A: The melting point was -22 °C.

Q: For `O=C1CCCC(=O)C1`, which melting point is on record?
A: The melting point was 106 °C.

Q: Which boiling point does the source give for `Cc1cccc(O)c1C` here?
A: Its boiling point is 217 °C.

Q: What about the log10 Henry constant (atm·m³/mol) of the same compound?
A: The log10 Henry constant (atm·m³/mol) was -6.13.

Q: And the log10 vapour pressure (mmHg)?
A: The log10 vapour pressure (mmHg) was -1.05.

Q: And the melting point?
A: The melting point was 72.8 °C.

Q: For `CCCCNC(=O)c1ccc2cc(O)c(O)cc2c1`, which melting point is on record?
A: The melting point was 194 °C.

Q: For `COc1cnc(NS(=O)(=O)c2ccc(N)cc2)nc1`, which melting point is on record?
A: The melting point was 215 °C.

Q: Which boiling point does the source give for `CCCC(=O)OC1CCCCC1` here?
A: The boiling point was 213 °C.

Q: Which boiling point does the source give for `CCN(CC)CC#N` here?
A: Its boiling point is 170 °C.

Q: For `CC(C)(Br)C(=O)O`, which boiling point is on record?
A: The boiling point was 199 °C.

Q: And the melting point?
A: The melting point was 48.5 °C.

Q: With `CCC(C(=O)O)C1(O)CCCCC1` (stereo not drawn) as the compound, how does the melting point read?
A: Its melting point is 81.5 °C.

Q: With `COc1ccc(C)cc1OC` as the compound, how does the boiling point read?
A: The boiling point was 220 °C.

Q: And the melting point?
A: Its melting point is 24 °C.

Q: Which boiling point does the source give for `Cc1ccc[nH]c1=O` here?
A: Its boiling point is 289 °C.

Q: And the melting point?
A: Its melting point is 142 °C.

Q: For `Fc1c(F)c(F)c(Br)c(F)c1F`, which boiling point is on record?
A: The boiling point was 137 °C.

Q: And the log10 vapour pressure (mmHg)?
A: Its log10 vapour pressure (mmHg) is 0.903.

Q: What about the melting point of the same compound?
A: The melting point was -31 °C.

Q: For `Cc1c[nH]cn1`, which boiling point is on record?
A: Its boiling point is 263 °C.

Q: What about the melting point of the same compound?
A: The melting point was 56 °C.

Q: For `C#C`, which boiling point is on record?
A: Its boiling point is -84.7 °C.

Q: And the log10 vapour pressure (mmHg)?
A: Its log10 vapour pressure (mmHg) is 4.56.

Q: And the melting point?
A: Its melting point is -80.7 °C.

Q: With `Oc1ccc2c(O)c3ccccc3cc2c1O` as the compound, how does the melting point read?
A: The melting point was 208 °C.

Q: With `OCC(O)COc1ccccc1Cl` (stereo not drawn) as the compound, how does the melting point read?
A: The melting point was 71.5 °C.

Q: For `CC(=O)c1ccc(C)cc1`, which boiling point is on record?
A: The boiling point was 226 °C.

Q: What about the melting point of the same compound?
A: Its melting point is 28 °C.

Q: And the ready biodegradability?
A: The ready biodegradability was “readily biodegradable”.

Q: For `Cc1ccc2[nH]c(C)c(C)c2c1`, which boiling point is on record?
A: Its boiling point is 297 °C.

Q: And the melting point?
A: The melting point was 122 °C.

Q: For `CCOC(=O)CC(C)C`, which boiling point is on record?
A: The boiling point was 135 °C.

Q: What about the log10 vapour pressure (mmHg) of the same compound?
A: The log10 vapour pressure (mmHg) was 0.919.

Q: What about the melting point of the same compound?
A: Its melting point is -99.3 °C.

Q: Which boiling point does the source give for `CCC(C)Oc1ccccc1` (stereo not drawn) here?
A: Its boiling point is 194 °C.

Q: With `COc1cccc(CO)c1` as the compound, how does the boiling point read?
A: Its boiling point is 252 °C.

Q: For `O=[N+]([O-])c1cc(Br)ccc1O`, which melting point is on record?
A: The melting point was 92 °C.

Q: For `CC(=O)C1CCCC1`, which boiling point is on record?
A: The boiling point was 158 °C.

Q: With `CC(=O)C(F)(F)F` as the compound, how does the boiling point read?
A: Its boiling point is 22 °C.

Q: And the log10 Henry constant (atm·m³/mol)?
A: Its log10 Henry constant (atm·m³/mol) is -5.11.

Q: Which melting point does the source give for `COC(=O)c1cccc(Br)c1` here?
A: The melting point was 32 °C.

Q: With `C=C1/C(=C/C=C2/CCC[C@]3(C)[C@@H]([C@H](C)CCCC(C)C)CC[C@@H]23)C[C@@H](O)C[C@@H]1O` as the compound, how does the melting point read?
A: Its melting point is 136 °C.

Q: For `CSCCSC`, which boiling point is on record?
A: The boiling point was 183 °C.

Q: For `CC1=CCCC(C)(C)C1CO` (stereo not drawn), which boiling point is on record?
A: The boiling point was 215 °C.

Q: With `COC1=C[C@@H]2[C@@H]3Cc4ccc(OC)c(O)c4[C@]2(CCN3C)CC1=O` as the compound, how does the melting point read?
A: Its melting point is 162 °C.

Q: What does the source list for `FC(F)(F)C(F)(F)C(F)(F)C(F)(F)C(F)(F)C(F)(F)I`?
A: boiling point: 118 °C; melting point: -46 °C

Q: For `COP(=O)(OC)OC(=CCl)c1cc(Cl)c(Cl)cc1Cl`, which log10 Koc (L/kg) is on record?
A: The log10 Koc (L/kg) was 3.01.

Q: What about the log10 vapour pressure (mmHg) of the same compound?
A: The log10 vapour pressure (mmHg) was -7.38.

Q: What about the melting point of the same compound?
A: Its melting point is 96.3 °C.

Q: And the ready biodegradability?
A: The ready biodegradability was “not readily biodegradable”.

Q: With `CC(C)(c1cc(Cl)c(O)c(Cl)c1)c1cc(Cl)c(O)c(Cl)c1` as the compound, how does the melting point read?
A: Its melting point is 135 °C.

Q: For `Nc1ccc(S(=O)c2ccc(N)cc2)cc1`, which melting point is on record?
A: Its melting point is 175 °C.

Q: With `CCCOC(C)=O` as the compound, how does the boiling point read?
A: The boiling point was 102 °C.

Q: What about the log10 Henry constant (atm·m³/mol) of the same compound?
A: Its log10 Henry constant (atm·m³/mol) is -3.66.

Q: What about the log10 Koa of the same compound?
A: The log10 Koa was 3.17.

Q: And the log10 vapour pressure (mmHg)?
A: The log10 vapour pressure (mmHg) was 1.56.

Q: And the melting point?
A: The melting point was -93 °C.

Q: What about the ready biodegradability of the same compound?
A: The ready biodegradability was “readily biodegradable”.

Q: Which log10 Koc (L/kg) does the source give for `Cc1cc(=O)[nH]c(=S)[nH]1` here?
A: The log10 Koc (L/kg) was 2.14.

Q: For `COc1ccc(N(CCCC(=O)O)C(=O)c2ccc(Cl)cc2)cc1`, which melting point is on record?
A: Its melting point is 116 °C.

Q: With `N#CO` as the compound, how does the log10 vapour pressure (mmHg) read?
A: The log10 vapour pressure (mmHg) was 2.91.

Q: What about the melting point of the same compound?
A: Its melting point is -86 °C.

Q: For `O=CCC=O`, which melting point is on record?
A: Its melting point is 72 °C.

Q: Which results are given for `CC(=O)NC(C)=O`?
A: boiling point: 224 °C; log10 vapour pressure (mmHg): -2; melting point: 79 °C

Q: With `C#CC(C)(C)NC(=O)c1ccc(Br)cc1` as the compound, how does the log10 Koc (L/kg) read?
A: Its log10 Koc (L/kg) is 2.01.

Q: For `Cc1nccc2ccccc12`, which boiling point is on record?
A: Its boiling point is 248 °C.

Q: What about the melting point of the same compound?
A: Its melting point is 10 °C.

Q: With `O=C(OCCO)c1ccc(C(=O)OCCO)cc1` as the compound, how does the ready biodegradability read?
A: Its ready biodegradability is “readily biodegradable”.

Q: Which ready biodegradability does the source give for `CCCCCCCCCCCCCCCCCCNC(=O)[C@H](O)[C@@H](O)[C@H](O)[C@H](O)CO` here?
A: Its ready biodegradability is “not readily biodegradable”.

Q: For `N#CCc1cccc([N+](=O)[O-])c1`, which melting point is on record?
A: Its melting point is 63 °C.

Q: For `O=C(O)c1ccc[nH]1`, which log10 vapour pressure (mmHg) is on record?
A: Its log10 vapour pressure (mmHg) is -5.65.

Q: With `Cc1ccc(CC(C)C)cc1` as the compound, how does the boiling point read?
A: The boiling point was 196 °C.

Q: Which melting point does the source give for `CC[C@@H](CO)NCCN[C@@H](CC)CO` here?
A: The melting point was 89 °C.

Q: Which boiling point does the source give for `FC(F)(Cl)Cl` here?
A: The boiling point was -29.8 °C.

Q: What about the log10 Henry constant (atm·m³/mol) of the same compound?
A: The log10 Henry constant (atm·m³/mol) was -0.465.

Q: And the log10 vapour pressure (mmHg)?
A: Its log10 vapour pressure (mmHg) is 3.69.

Q: And the melting point?
A: Its melting point is -158 °C.

Q: And the ready biodegradability?
A: The ready biodegradability was “not readily biodegradable”.

Q: Which melting point does the source give for `CC1(C)CC[C@]2(C)CC=C3[C@]4(C)CC[C@H]5C(C)(C)[C@@H](O)CC[C@]5(C)[C@H]4CC[C@@]3(C)[C@@H]2C1` here?
A: Its melting point is 284 °C.

Q: Which results are given for `O=C(Cl)OCCOCCOC(=O)Cl`?
A: boiling point: 229 °C; log10 vapour pressure (mmHg): -2.83

Q: With `CCCCCCCCCCCC[N+](C)(C)[O-]` as the compound, how does the melting point read?
A: Its melting point is 132 °C.

Q: What about the ready biodegradability of the same compound?
A: Its ready biodegradability is “readily biodegradable”.

Q: Which boiling point does the source give for `O=C=Nc1ccc(Br)cc1` here?
A: The boiling point was 226 °C.

Q: Which boiling point does the source give for `CCCCN(C(C)=O)c1ccccc1` here?
A: The boiling point was 281 °C.

Q: And the melting point?
A: The melting point was 24.5 °C.

Q: Which melting point does the source give for `COc1ccc(N)c(OC)c1` here?
A: Its melting point is 33.5 °C.

Q: What does the source list for `N#CCC=CCC#N`?
A: log10 vapour pressure (mmHg): -2.16; melting point: 76 °C

Q: With `FC(=C(F)C(F)(F)F)C(F)(F)F` as the compound, how does the boiling point read?
A: The boiling point was 1.5 °C.

Q: And the log10 vapour pressure (mmHg)?
A: Its log10 vapour pressure (mmHg) is 3.3.

Q: And the melting point?
A: The melting point was -129 °C.
